Measurements published in paper PMC10827794 (2024).
Values belong to the compound of their own block, whether it stands above or below them.

Key:
[1] = tested on: WT_5.1 (Oligo 5.1) (DNA, G4) TAGAGGACAGCGGGGAAGGCGGGCGGTGGGGCAGGGGGCCTGAAGCGGCGGTACCGGTGCTGGCGGCGGCAGCTGAGGCC; test: fluorescence enhancement; settings: 1 μM DNA, 2 μM TO
[2] = tested on: WT_14.1 (Oligo 14.1) (DNA, G4) AAAGGGAAGTATGGCTGGTGTACCGGGAGCAAGGGAGAGGGAAGGAGGGGCCAAATTAATAGGCCCACGGT; test: fluorescence enhancement; settings: 1 μM DNA, 2 μM TO
[3] = tested on: WT_14.2 (Oligo 14.2) (DNA, G4) ATAGAGAGTGATGGGGAGGGGGTGAGTGGAGGGTCAAGGAAGGCCCTCCCTGAGGTGGTGTTATTTGACGGGGGTCCACA; test: fluorescence enhancement; settings: 1 μM DNA, 2 μM TO
[4] = tested on: WT_40.1 (Oligo 40.1) (DNA, G4) GGGGGCGGGGGCGGGGGTGGGGGGAAGAAAAATTCCTAGCTGTAGCTGACTGCA; test: fluorescence enhancement; settings: 10 mM Tris-Cl pH 7.5, 25 °C, 1 μM DNA, 2 μM TO
[5] = tested on: Template_5.2 with 5.2 primer (DNA, G4) CCGCGCGGTGAGTCTAGGGCCTGGCACGACCCCTCTAGGGCGGCGTAATGTCCAGACCCA/CGTGGGTCTGGACAT; test: polymerase stop (primer extension); settings: KCl, 1 mM MgCl2; 40 mM Tris-HCl pH 8.0, 40 °C; ligand 0-20 μM; truncated products
[6] = tested on: Template_8.1 with 8.1 primer (DNA, G4) CTGCCTGACAAGGGCTAGGGGGAGATCTGTGTTGGGTGACCAGGGCCATAAGTAAATTTCATCATACT/AGTATGATGAAATTTACTTATGG; test: polymerase stop (primer extension); settings: KCl, 1 mM MgCl2; 40 mM Tris-HCl pH 8.0, 40 °C; ligand 0-20 μM; truncated products
[7] = tested on: WT_5.1 (Oligo 5.1) (DNA, G4) TAGAGGACAGCGGGGAAGGCGGGCGGTGGGGCAGGGGGCCTGAAGCGGCGGTACCGGTGCTGGCGGCGGCAGCTGAGGCC; test: fluorescent intercalator displacement (G4-FID); settings: TO displaced; ligand 0-2.5 μM
[8] = tested on: WT_5.2 (Oligo 5.2) (DNA, G4) CCGCGCGGTGAGTCTAGGGCCTGGCACGACCCCTCTAGGGCGGCGTAATGTCCAGACCCA; test: fluorescent intercalator displacement (G4-FID); settings: TO displaced; ligand 0-2.5 μM
[9] = tested on: WT_5.3 (Oligo 5.3) (DNA, G4) CGGCCAGCCTGCCCGTGGGGGGGCCAGGGGAAGCCGCCCGTCTGGGACGTGGGGTCCCCA; test: fluorescent intercalator displacement (G4-FID); settings: TO displaced; ligand 0-2.5 μM
[10] = tested on: WT_8.1 (Oligo 8.1) (DNA, G4) CTGCCTGACAAGGGCTAGGGGGAGATCTGTGTTGGGTGACCAGGGCCATA; test: fluorescent intercalator displacement (G4-FID); settings: TO displaced; ligand 0-2.5 μM
[11] = tested on: WT_14.1 (Oligo 14.1) (DNA, G4) AAAGGGAAGTATGGCTGGTGTACCGGGAGCAAGGGAGAGGGAAGGAGGGGCCAAATTAATAGGCCCACGGT; test: fluorescent intercalator displacement (G4-FID); settings: TO displaced; ligand 0-2.5 μM
[12] = tested on: WT_14.2 (Oligo 14.2) (DNA, G4) ATAGAGAGTGATGGGGAGGGGGTGAGTGGAGGGTCAAGGAAGGCCCTCCCTGAGGTGGTGTTATTTGACGGGGGTCCACA; test: fluorescent intercalator displacement (G4-FID); settings: TO displaced; ligand 0-2.5 μM
[13] = tested on: WT_5.1R (RNA, G4) GCGAAAGGGGAAGGCGGGCGGUGGGGCAGGGGGCCUGAAGCGGCCUAGCUGUAGCUGACUGCA; test: fluorescence enhancement; settings: no added monovalent cation; 10 mM Tris-Cl pH 7.5, 0.01 mM EDTA, 25 °C; 2 μM RNA, 2 μM ThT; ~160-fold enhancement

binding [1]: yes
binding [2]: yes
binding [3]: yes
binding ([4]; 100 mM KCl, enhancement lower than without K+): yes
binding ([4]; no added monovalent cation, ~330-fold enhancement): yes
Structure (SMILES): CN1C(=Cc2cc[n+](C)c3ccccc23)Sc2ccccc21

binding [5]: yes
binding [6]: yes
DC50 [7]: 0.8800 µM
DC50 [8]: 1.039 µM
DC50 [9]: 0.9563 µM
DC50 [10]: 0.4791 µM
DC50 [11]: 0.8977 µM
DC50 [12]: 0.6296 µM
Structure (SMILES): C[n+]1ccc(-c2c3nc(c(-c4cc[n+](C)cc4)c4ccc([nH]4)c(-c4cc[n+](C)cc4)c4nc(c(-c5cc[n+](C)cc5)c5ccc2[nH]5)C=C4)C=C3)cc1

binding [13]: yes
Structure (SMILES): Cc1ccc2c(c1)sc(-c1ccc(N(C)C)cc1)[n+]2C
